Where two headings read alike, the source gives them in different places.
How the values were obtained:
[1] = tested on: MDA-MB-231 (breast cancer) cell line; assay: Cell growth inhibition experiment (SRB), MDA-MB-231; format: cell-based, human; conditions: 96 hours incubation
Description: (§1) The cell lines below were used in order to confirm the efficacy of the compounds synthesized in Examples 1 to 60. Human PANC-1 (pancreatic cancer) and MDA-MB-231 (breast cancer) cell lines were obtained from the American Type Culture Collection (ATCC; Manassas, Va.); and HN31 (head and neck cancer) and UMRC2 (kidney cancer) cell lines were secured from the United States National Institutes of Health (Bethesda, Md.). The MDA-MB-231, UMRC2, HN31, and PANC-1 cell lines were cultured in Dulbecco modified Eagle medium (DMEM; Invitrogen, Carlsbad, Calif.) containing FBS (10%), HEPES (10 mM), penicillin (100 U/mL), and streptomycin (100 μg/mL). All cell lines were cultured in an incubator (37° C., 5% CO2).
(§2) The 4-(aryl)-N-(3-alkoxyfuro[2,3-b]pyrazin-2-yl)-piperazine-1-carboxamide derivative compounds synthesized according to Examples 1 to 60 of the present invention were treated with various human tissue-derived cancer cell lines cultured according to Experimental Example 1, and thus the inhibitory effect of the growth of human cancer cells was confirmed. The cell growth inhibition experiment was conducted using the sulforhodamine B (SRB) technique (Skehan et al., J. National Cancer Institute, 1990, 82: 1107-1112). Specifically, each cell line was seeded in a 96-well plate at a density of 2 to 3×10^3 cells/well, cultured overnight, and then treated with the 4-(aryl)-N-(3-alkoxyfuro[2,3-b]pyrazin-2-yl)-piperazine-1-carboxamide derivative compounds of the present invention. The experiment was repeated 3 times for each compound. Cells treated with each compound were additionally incubated for 96 hours, fixed with 10% trichloroacetic acid (TCA), and then left at 4° C. for 1 hour. The resultant was washed 3 times with distilled water. Thereafter, each cell was treated with 0.4% sulforhodamine B dissolved in 1% acetic acid, stained for 30 minutes, and then washed 4 times with 1% acetic acid. The resultant was dried in the air. After shaking the resultant in Tris solution (10 mM) for 5 minutes, the absorbance was measured at 530 nm using a Benchmark Plus Microplate reader (Bio-Rad Laboratories, Hercules, Calif.).
(§3) In order to convert the OD530 value to the number of viable cells per each well, the measured OD530 value was compared to the standard OD530-vs.-cell number curve of each cell line. The percent survival was calculated using the following formula: % survival=Nlive cells(test)/Nlive cells(control)×100

[2] = tested on: UMRC2 (kidney cancer) cell line; assay: Cell growth inhibition experiment (SRB), UMRC2; format: cell-based, human; conditions: 96 hours incubation
Description: as §1, §2, §3

[3] = tested on: PANC-1 (pancreatic cancer) cell line; assay: Cell growth inhibition experiment (SRB), PANC-1; format: cell-based; conditions: Homo sapiens, PANC-1, 96 h, 96 hours incubation
Description: as §1, §2, §3

[4] = tested on: HN31 (head and neck cancer) cell line; assay: Cell growth inhibition experiment (SRB), HN31; format: cell-based, human; conditions: 96 hours incubation
Description: as §1, §2, §3

A549 = assay: Cell growth inhibition experiment (SRB), A549; format: cell-based; conditions: Homo sapiens, A549, 96 h, 96 hours incubation, read-out: IC50 (μM) for cancer cell line A549
Description: as §2, §3

HEK293 = assay: Cell growth inhibition experiment (SRB), HEK293; format: cell-based, human; conditions: 96 hours incubation, read-out: IC50 (μM) for cancer cell line HEK293
Description: as §2, §3

HUVEC = assay: Cell growth inhibition experiment (SRB), HUVEC; format: cell-based, human; conditions: 96 hours incubation, read-out: IC50 (μM) […]
Description: as §2, §3

HT29 = assay: Cell growth inhibition experiment (SRB), HT29; format: cell-based, human; conditions: 96 hours incubation, read-out: IC50 (μM) for cancer cell line HT29
Description: as §2, §3

SK-OV-3 = assay: Cell growth inhibition experiment (SRB), SK-OV-3; format: cell-based, human; conditions: 96 hours incubation, read-out: IC50 (μM) for cancer cell line SK-OV-3
Description: as §2, §3

| IC50 ([1]; Homo sapiens, MDA-MB-231, 96 h) | IC50 ([2]; Homo sapiens, UMRC2, 96 h) | IC50 [3] | IC50 ([4]; Homo sapiens, 96 h) | IC50 (A549) | IC50 (HT29; Homo sapiens, HT-29, 96 h) | IC50 (SK-OV-3; Homo sapiens, SK-OV-3, 96 h) | IC50 [1] | IC50 [2] | IC50 [4] | IC50 (HT29) | IC50 (SK-OV-3) | SMILES | IC50 (HEK293; Homo sapiens, HEK293, 96 h) | IC50 (HUVEC; Homo sapiens, HUVEC, 96 h) | IC50 (HEK293) | IC50 (HUVEC) |
| --- | --- | --- | --- | --- | --- | --- | --- | --- | --- | --- | --- | --- | --- | --- | --- | --- |
| 1.68 µM | 1.87 µM | 1.98 µM | < 2.5 µM | < 2.5 µM | < 2.5 µM | < 2.5 µM | – | – | – | – | – | CCOc1nc2oc(Cl)cc2nc1NC(=O)N1CCN(c2cc(C(F)(F)F)cc(C(F)(F)F)c2)CC1 [Example 59, 4-(3,5-Bis(trifluoromethyl)phenyl)-N-(6-chloro-3-ethoxyfuro[2,3-b]pyrazin-2-yl)piperazine-1-carboxamide] | < 2.5 µM | < 2.5 µM | – | – |
| 0.44 µM | 1.74 µM | 2.12 µM | < 2.5 µM | 1.63 µM | 1.85 µM | 1.85 µM | – | – | – | – | – | COc1cc(OC)cc(N2CCN(C(=O)Nc3nc4cc(C)oc4nc3OC)CC2)c1 [Example 21, 4-(3,5-Dimethoxyphenyl)-N-(3-methoxy-6-methylfuro[2,3-b]pyrazin-2-yl)piperazine-1-carboxamide] | 1.25 µM | < 2.5 µM | – | – |
| 0.36 µM | 1.21 µM | 0.44 µM | 1.02 µM | 0.68 µM | < 2.5 µM | < 2.5 µM | – | – | – | – | – | CCOc1nc2oc(C)cc2nc1NC(=O)N1CCN(c2cc(OC)cc(OCCN(C)C)c2)CC1 [Example 34, 4-(3-(2-(Dimethylamino)ethoxy)-5-methoxyphenyl)-N-(3-ethoxy-6-methylfuro[2,3-b]pyrazin-2-yl)piperazine-1-carboxamide] | 0.44 µM | < 2.5 µM | – | – |
| 0.32 µM | 0.68 µM | 1.68 µM | 1.75 µM | < 2.5 µM | < 2.5 µM | < 2.5 µM | – | – | – | – | – | CCOc1nc2oc(Cl)cc2nc1NC(=O)N1CCN(c2cc(C)cc(C)c2)CC1 [Example 55, N-(6-Chloro-3-ethoxyfuro[2,3-b]pyrazin-2-yl)-4-(3,5-dimethylphenyl)piperazine-1-carboxamide] | < 2.5 µM | < 2.5 µM | – | – |
| 0.32 µM | 1.03 µM | 1.68 µM | 1.17 µM | < 2.5 µM | < 2.5 µM | < 2.5 µM | – | – | – | – | – | COc1nc2oc(Cl)cc2nc1NC(=O)N1CCN(c2cc(C(F)(F)F)cc(C(F)(F)F)c2)CC1 [Example 49, 4-(3,5-Bis(trifluoromethyl)phenyl)-N-(6-chloro-3-methoxy-furo[2,3-b]pyrazin-2-yl)piperazine-1-carboxamide] | < 2.5 µM | < 2.5 µM | – | – |
| < 2.5 µM | < 2.5 µM | < 2.5 µM | < 2.5 µM | < 2.5 µM | < 2.5 µM | < 2.5 µM | – | – | – | – | – | CCOc1nc2oc(Cl)cc2nc1NC(=O)N1CCN(c2cc(F)cc(F)c2)CC1 [Example 57, N-(6-Chloro-3-ethoxyfuro[2,3-b]pyrazin-2-yl)-4-(3,5-difluorophenyl)piperazine-1-carboxamide] | < 2.5 µM | < 2.5 µM | – | – |
| 0.16 µM | 0.26 µM | 0.65 µM | 0.72 µM | < 2.5 µM | < 2.5 µM | < 2.5 µM | – | – | – | – | – | CCOc1nc2occc2nc1NC(=O)N1CCN(c2cc(F)cc(OC)c2)CC1 [Example 13, N-(3-Ethoxyfuro[2,3-b]pyrazin-2-yl)-4-(3-fluoro-5-methoxyphenyl)piperazine-1-carboxamide] | < 2.5 µM | < 2.5 µM | – | – |
| 0.36 µM | 0.44 µM | 0.44 µM | 0.28 µM | 0.63 µM | 0.28 µM | 0.36 µM | – | – | – | – | – | COc1cc(F)cc(N2CCN(C(=O)Nc3nc4cc(C)oc4nc3OC)CC2)c1 [Example 23, 4-(3-Fluoro-5-methoxyphenyl)-N-(3-methoxy-6-methylfuro[2,3-b]pyrazin-2-yl)piperazine-1-carboxamide] | 0.35 µM | 0.45 µM | – | – |
| 0.12 µM | 0.36 µM | 0.44 µM | 1.63 µM | 1.25 µM | < 2.5 µM | < 2.5 µM | – | – | – | – | – | CCOc1nc2oc(C)cc2nc1NC(=O)N1CCN(c2cc(OC)cc(OC)c2)CC1 [Example 31, 4-(3,5-Dimethoxyphenyl)-N-(3-ethoxy-6-methylfuro[2,3-b]pyrazin-2-yl)piperazine-1-carboxamide] | < 2.5 µM | < 2.5 µM | – | – |
| < 2.5 µM | < 2.5 µM | < 2.5 µM | < 2.5 µM | < 2.5 µM | < 2.5 µM | < 2.5 µM | – | – | – | – | – | CCOc1nc2oc(C)cc2nc1NC(=O)N1CCN(c2cc(C(F)(F)F)cc(C(F)(F)F)c2)CC1 [Example 39, 4-(3,5-Bis(trifluoromethyl)phenyl)-N-(3-ethoxy-6-methylfuro[2,3-b]pyrazin-2-yl)piperazine-1-carboxamide] | < 2.5 µM | < 2.5 µM | – | – |
| < 2.5 µM | < 2.5 µM | < 2.5 µM | < 2.5 µM | < 2.5 µM | < 2.5 µM | < 2.5 µM | – | – | – | – | – | COc1nc2oc(Cl)cc2nc1NC(=O)N1CCN(c2cccc(OC(F)(F)F)c2)CC1 [Example 50, N-(6-Chloro-3-methoxy-furo[2,3-b]pyrazin-2-yl)-4-(3-(trifluoromethoxy)phenyl)piperazine-1-carboxamide] | < 2.5 µM | < 2.5 µM | – | – |
| 1.32 µM | 1.56 µM | < 2.5 µM | < 2.5 µM | < 2.5 µM | < 2.5 µM | < 2.5 µM | – | – | – | – | – | COc1nc2oc(C)cc2nc1NC(=O)N1CCN(c2cc(C)cc(F)c2)CC1 [Example 26, 4-(3-Fluoro-5-methylphenyl)-N-(3-methoxy-6-methylfuro[2,3-b]pyrazin-2-yl)piperazine-1-carboxamide] | < 2.5 µM | < 2.5 µM | – | – |
| 0.24 µM | 0.06 µM | 0.56 µM | 0.71 µM | 2.11 µM | 1.53 µM | 0.85 µM | – | – | – | – | – | COc1cc(F)cc(N2CCN(C(=O)Nc3nc4ccoc4nc3OC)CC2)c1 [Example 3, 4-(3-Fluoro-5-methoxyphenyl)-N-(3-methoxyfuro[2,3-b]pyrazin-2-yl)piperazine-1-carboxamide] | < 2.5 µM | < 2.5 µM | – | – |
| 0.43 µM | 0.38 µM | 0.61 µM | 0.53 µM | 0.36 µM | 0.87 µM | < 2.5 µM | – | – | – | – | – | COc1cc(OCCN(C)C)cc(N2CCN(C(=O)Nc3nc4cc(Cl)oc4nc3OC)CC2)c1 [Example 44, N-(6-Chloro-3-methoxyfuro[2,3-b]pyrazin-2-yl)-4-(3-(2-(dimethylamino)ethoxy)-5-methoxyphenyl)piperazine-1-carboxamide] | 0.71 µM | 0.66 µM | – | – |
| 0.21 µM | 0.32 µM | – | 0.68 µM | – | 1.59 µM | 2.13 µM | 0.12 µM | 0.36 µM | 0.57 µM | < 2.5 µM | < 2.5 µM | COc1cc(F)cc(N2CCN(C(=O)Nc3nc4cc(Cl)oc4nc3OC)CC2)c1 [Example 43, N-(6-Chloro-3-methoxyfuro[2,3-b]pyrazin-2-yl)-4-(3-fluoro-5-methoxyphenyl)piperazine-1-carboxamide] | 1.32 µM | 1.77 µM | < 2.5 µM | < 2.5 µM |

From patent US10800788B2, “4-(aryl)-N-(3-alkoxyfuro[2,3-b]pyrazin-2-yl)-piperazine-1-carboxamide derivative and antiproliferative effect thereof” (Dongguk University Industry-Academic Cooperation Foundation, priority 2016, dated 2020)
